Laboratory results from patent publication EP1200406B1, “CYCLIC AMIDES AND IMIDES HAVING SELECTIVE ANTAGONIST ACTIVITY AT ALPHA-1D ADRENERGIC RECEPTOR” (RECORDATI INDUSTRIA CHIMICA E FARMACEUTICA S.p.a., priority 1999, dated 2001).
pKi: −log10 of the molar value. Read-outs that look alike come from different tables or passages of the source.

What was measured:
[1] = target: T1, human recombinant α1b adrenoceptor (Homo sapiens, UniProt P35368); assay: Radioligand binding ([3H]prazosin) on membranes of CHO cells expressing cloned α1b adrenoceptor; conditions: human cloned receptor, CHO cell membranes, 0.2 nM [3H]prazosin; read-out: Affinity (Ki) α1b
T1 construct: expressed in transfected cells; host or cells: CHO cells (membranes)
T1 sequence (P35368 1-520): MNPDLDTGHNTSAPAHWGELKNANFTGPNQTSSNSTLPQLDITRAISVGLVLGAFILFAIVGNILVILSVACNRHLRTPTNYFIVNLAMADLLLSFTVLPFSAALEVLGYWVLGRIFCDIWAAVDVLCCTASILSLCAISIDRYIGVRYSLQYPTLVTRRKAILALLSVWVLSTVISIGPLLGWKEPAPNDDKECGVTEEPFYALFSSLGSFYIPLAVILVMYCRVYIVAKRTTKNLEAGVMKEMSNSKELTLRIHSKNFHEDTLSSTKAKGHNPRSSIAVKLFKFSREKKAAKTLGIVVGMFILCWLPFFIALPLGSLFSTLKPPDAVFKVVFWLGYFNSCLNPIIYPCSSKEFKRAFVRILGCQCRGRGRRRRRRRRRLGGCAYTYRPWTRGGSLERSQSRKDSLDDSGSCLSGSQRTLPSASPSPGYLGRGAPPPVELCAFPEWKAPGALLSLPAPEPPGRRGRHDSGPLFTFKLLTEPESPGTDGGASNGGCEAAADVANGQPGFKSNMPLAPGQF
Method: (§1) The determination of affinity for cloned subtypes of human α1 adrenergic receptors was performed in membranes from CHO cells (chinese hamster ovary cells) transfected by electroporation with DNA expressing the genes encoding each α1-adrenoceptor subtype, namely α1a, α1b and α1d.. Cloning and stable expression of the human α1-adrenoceptor gene were performed as previously described (Testa et al., Pharmacol. Comm. 6, 79-86 (1995)). CHO cell membranes were incubated in […] Tris pH 7.4 with 0.2 nM [^3H]prazosin, in a final volume of 1.02 ml for 30 minutes at 25°C, in the absence or presence of competing drugs (1 pM-10 µM). Non-specific binding was determined in the presence of 10 µM phentolamine. Incubation was stopped by addition of ice-cold Tris buffer and rapid filtration through 0.2% polyethyleneimine pretreated Schleicher & Schuell GF52 filters. Genomic clone G-21 coding for the human 5-HT1A-serotoninergic receptor was stably transfected in a human cell line (HeLa) (Fargin et al., J. Biol. Chem. 284, 14848-14852 (1989)). The HeLa cells were grown as monolayers in Dulbecco's modified Eagle's medium (DMEM), supplemented with 10% foetal calf serum and gentamicin (100 µg/ml), 5% CO2, at 37°C. The cells were detached from the growth flask at 95% confluence by a cell scraper and were lysed in ice-cold 5 mM Tris and 5-mM EDTA buffer (pH 7.4). The homogenates were centrifuged at 40000 x g x 20 minutes and the membranes were re-suspended in a small volume of ice-cold 5 mM Tris and 5-mM EDTA buffer (pH 7.4) and immediately frozen and stored at -70°C until use. On the experiment day, the cell membranes were re-suspended in a buffer containing 50 mM Tris (pH 7.4), 2.5 mM MgCl2, 10 µM pargyline (Fargin et al., Nature 335, 358-360 (1988)). […] The incubation was stopped by addition of ice-cold Tris buffer and rapid filtration through 0.2%-polyethyleneimine-pretreated Schleicher & Schuell filters. The inhibition of specific binding of the radioligands by the drugs was analysed to estimate the IC50 value by using the non-linear curve-fitting programme Allfit (De Lean et al., Am. J. Physiol. 235, E97-E102 (1978)). The IC50 value was converted to an affinity constant (Ki) by the equation of Cheng & Prusoff (Biochem. Pharmacol. 22, 3099-3108 (1973)). Data were expressed as mean of Ki.

[2] = target: T2, human recombinant α1a adrenoceptor (Homo sapiens, UniProt P35348); assay: Radioligand binding ([3H]prazosin) on membranes of CHO cells expressing cloned α1a adrenoceptor; conditions: human cloned receptor, CHO cell membranes, 0.2 nM [3H]prazosin; read-out: Affinity (Ki) α1a
T2 construct: expressed in transfected cells; host or cells: CHO cells (membranes)
T2 sequence (P35348 1-466): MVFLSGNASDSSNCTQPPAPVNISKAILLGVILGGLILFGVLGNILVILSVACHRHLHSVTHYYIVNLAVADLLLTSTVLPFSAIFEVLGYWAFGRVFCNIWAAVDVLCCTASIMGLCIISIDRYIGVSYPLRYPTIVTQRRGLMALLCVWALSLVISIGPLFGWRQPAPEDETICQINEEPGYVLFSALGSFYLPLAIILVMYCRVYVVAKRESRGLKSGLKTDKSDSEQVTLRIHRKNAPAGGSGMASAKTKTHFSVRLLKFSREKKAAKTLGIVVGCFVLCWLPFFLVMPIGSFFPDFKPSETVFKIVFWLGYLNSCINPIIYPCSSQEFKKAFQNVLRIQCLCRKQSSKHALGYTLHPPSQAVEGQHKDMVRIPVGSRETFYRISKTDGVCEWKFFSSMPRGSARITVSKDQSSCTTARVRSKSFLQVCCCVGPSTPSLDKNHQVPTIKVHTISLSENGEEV
Method: as §1, with “Genomic clone G-21 coding for the human 5-HT1A-serotoninergic receptor was stably transfected in a human cell line (HeLa) (Fargin et al., J. Biol. Chem. 284, 14848-14852 (1989)).” left out

[3] = target: T3, human 5-HT1A-serotoninergic receptor (Homo sapiens, UniProt P08908); assay: Radioligand binding ([3H]8-OH-DPAT) on membranes of HeLa cells expressing cloned 5-HT1A receptor; conditions: read-out: Affinity (Ki) 5-HT1A
T3 construct: expressed in transfected cells; host or cells: HeLa cells (membranes)
T3 sequence (P08908 1-422): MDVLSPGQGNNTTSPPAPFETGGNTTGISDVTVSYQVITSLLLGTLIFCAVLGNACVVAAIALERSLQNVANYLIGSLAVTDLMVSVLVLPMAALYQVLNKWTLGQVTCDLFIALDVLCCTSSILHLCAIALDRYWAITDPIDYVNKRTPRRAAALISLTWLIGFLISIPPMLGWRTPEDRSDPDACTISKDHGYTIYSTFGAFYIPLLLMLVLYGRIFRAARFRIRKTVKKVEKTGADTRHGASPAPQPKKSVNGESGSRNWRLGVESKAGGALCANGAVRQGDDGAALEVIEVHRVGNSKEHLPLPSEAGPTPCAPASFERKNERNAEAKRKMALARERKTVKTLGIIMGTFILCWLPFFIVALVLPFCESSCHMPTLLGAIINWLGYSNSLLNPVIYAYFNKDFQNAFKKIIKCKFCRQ
Method: as §1

Rat aorta α1D = target: T4, Rat aorta α1D (Rattus norvegicus, UniProt P23944); assay: Functional antagonism of noradrenaline-induced contraction, rat aorta strips; type: cell-based, Sprague Dawley rats; conditions: noradrenaline as agonist, 30 minutes incubation, Schild plot; read-out: Functional affinity pKB, Rat aorta α1D (converted)
T4 construct: from tissue; host or cells: rat thoracic aorta, helicoidal strips
T4 sequence (P23944 1-561): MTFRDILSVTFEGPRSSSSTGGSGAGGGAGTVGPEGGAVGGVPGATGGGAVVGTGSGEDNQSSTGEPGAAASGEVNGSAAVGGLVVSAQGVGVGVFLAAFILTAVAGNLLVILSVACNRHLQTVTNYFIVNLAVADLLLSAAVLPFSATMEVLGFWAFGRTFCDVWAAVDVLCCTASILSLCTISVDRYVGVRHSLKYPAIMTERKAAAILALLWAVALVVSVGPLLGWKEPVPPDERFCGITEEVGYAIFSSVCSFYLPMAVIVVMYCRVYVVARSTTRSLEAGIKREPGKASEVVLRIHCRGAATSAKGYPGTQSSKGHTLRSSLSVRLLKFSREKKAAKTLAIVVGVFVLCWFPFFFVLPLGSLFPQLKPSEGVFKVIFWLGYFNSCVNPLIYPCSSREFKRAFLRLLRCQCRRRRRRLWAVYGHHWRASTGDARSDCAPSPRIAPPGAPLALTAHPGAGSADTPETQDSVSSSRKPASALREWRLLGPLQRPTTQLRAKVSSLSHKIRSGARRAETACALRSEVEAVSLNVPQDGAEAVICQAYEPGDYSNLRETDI
Method: In vitro assessment of functional antagonism for α1-adrenoceptor subtypes
Thoracic aorta was obtained from Sprague Dawley rats, cut in helicoidal strips and placed in Krebs solution containing desmethylimipramine (0.1 µM), corticosterone (1 µM), propranol (1 µM) and yohimbine (0.1 µM). The strips were mounted for isotonic tension recording in an organ bath containing the above Krebs buffer enriched and aerated constantly with 95% O2 and 5% CO2, maintained at 37°C and loaded with 1.5 g. After an equilibration period, the strips were primed twice with 10 µM noradrenaline, then concentration/response-to-the-agonist curves were constructed before (basal) and after 30 minutes incubation with single antagonist concentrations (response). The Schild-plot parameters were evaluated by linear-regression analysis according to Tallarida and Murray (Manual of Pharmacologic Calculations with Computer Programs, 53-56, Springer-Verlag).

[4] = target: T5, human recombinant α1d adrenoceptor (Homo sapiens, UniProt P25100); assay: Radioligand binding ([3H]prazosin) on membranes of CHO cells expressing cloned α1d adrenoceptor; conditions: human cloned receptor, CHO cell membranes, 0.2 nM [3H]prazosin; read-out: Affinity (Ki) α1d
T5 construct: expressed in transfected cells; host or cells: CHO cells (membranes)
T5 sequence (P25100 1-572): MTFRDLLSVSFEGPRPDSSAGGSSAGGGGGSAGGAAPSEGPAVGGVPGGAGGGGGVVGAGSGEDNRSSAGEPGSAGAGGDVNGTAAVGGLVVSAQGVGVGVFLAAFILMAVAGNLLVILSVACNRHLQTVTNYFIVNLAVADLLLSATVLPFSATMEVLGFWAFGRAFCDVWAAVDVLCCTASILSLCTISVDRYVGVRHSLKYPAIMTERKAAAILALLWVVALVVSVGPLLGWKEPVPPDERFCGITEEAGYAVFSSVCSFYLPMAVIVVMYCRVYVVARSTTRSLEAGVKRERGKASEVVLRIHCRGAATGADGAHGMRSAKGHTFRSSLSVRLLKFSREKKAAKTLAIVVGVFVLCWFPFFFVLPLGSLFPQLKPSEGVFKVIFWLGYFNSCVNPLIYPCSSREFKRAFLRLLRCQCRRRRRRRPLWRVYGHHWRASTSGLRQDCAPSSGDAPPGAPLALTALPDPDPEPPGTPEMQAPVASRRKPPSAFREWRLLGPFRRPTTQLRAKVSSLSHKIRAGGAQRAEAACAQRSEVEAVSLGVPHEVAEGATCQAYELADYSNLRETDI
Method: as §1, with “Genomic clone G-21 coding for the human 5-HT1A-serotoninergic receptor was stably transfected in a human cell line (HeLa) (Fargin et al., J. Biol. Chem. 284, 14848-14852 (1989)).” left out

[5] = human cloned receptor, HeLa cell membranes, 1.2 nM [3H]8-OH-DPAT

| pKi [4] | pKi [3] | SMILES | pKi [1] | pKi [2] | pKi [3, 5] | Kb (Rat aorta α1D) [nM] |
| --- | --- | --- | --- | --- | --- | --- |
| 8.11 | < 6.00 | O=C1CCC(=O)N1CCN1CCN(c2cc(Cl)ccc2Cl)CC1 [Example 12, 1-{2-[4-(2,5-Dichlorophenyl)-1-piperazinyl]-ethyl}-pyrrolidine-2,5-dione] | 7.06 |  |  |  |
| 9.02 | 7.45 | O=C1CC2(CCCCCC2)CC(=O)N1CCN1CCN(c2cc(Cl)ccc2Cl)CC1 [Example 26, 3-{2-[4-(2,5-Dichlorophenyl)-1-piperazinyl]-ethyl}-3-azaspiro[5.6]dodecane-2,4-dione] |  |  |  |  |
| 9.18 | 7.39 | O=C1CC2(CCCCC2)CCN1CCN1CCN(c2cc(Cl)ccc2Cl)CC1 [Example 25, 3-{2-[4-(2,5-Dichlorophenyl)-1-piperazinyl]-ethyl}-3-azaspiro[5.5]undecane-2-one] |  |  |  |  |

Continued, compound first:

| SMILES | pKi [4] | pKi [3] | pKi [1] | pKi [2] | pKi [3, 5] | Kb (Rat aorta α1D) [nM] |
| --- | --- | --- | --- | --- | --- | --- |
| Cc1ccc(Cl)c(N2CCN(CCN3C(=O)CC4(CCCC4)CC3=O)CC2)c1 [Example 3, 8-{2-[4-(2-Chloro-5-methylphenyl)-1-pirerazinyl]-ethyl}-8-azaspiro[4.5]decane-7,9-dione] |  |  | 6.71 | 6.90 | 7.16 |  |
| O=C1CC2(CCCC2)CCN1CCN1CCN(c2cc(Cl)ccc2Cl)CC1 [Example 19, 8-{2-[4-(2,5-Dichlorophenyl)-1-piperazinyl]-ethyl}-8-azaspiro[4.5]decane-7-one] |  |  | 7.97 |  | 7.76 | 1.29 |
